Measurements as given in patent publication US6180596A, “Methods of inhibiting phospholipase A2 and phospholipase A2 stimulator activities” (Wisconsin Alumni Research Foundation, priority 1998, dated 2001).
“Also recorded” adds a separate entry of the source.

Test system: elastase
Experiment: Degradation of rabbit lung Annexin I to 33 kDa(BP) by elastase, with and without PMSF
Format: biochemical
Details: PMSF present in the reaction solution; concentration not given; substrate rabbit lung Annexin I

**Q.** Which “inhibition of the proteolytic hydrolysis of Annexin I catalyzed by elastase” value does the source give for `O=S(=O)(F)Cc1ccccc1` [PMSF, phenylmethyl sulfonyl fluoride] here?
**A.** totally inhibited; also recorded: prevented Annexin I degradation
